Columns and labels:
Assay type in all cases: functional
SK-MEL-28 = assay: Cytotoxicity against human SK-MEL-28 cells assessed as inhibition of cell growth incubated for 24 hrs by resazurin staining based analysis; conditions: SK-MEL-28, 24 h
LOX IMVI = assay: Cytotoxicity against human LOX IMVI cells assessed as inhibition of cell growth incubated for 24 hrs by resazurin staining based analysis
SK-MEL-25 = assay: Cytotoxicity against human SK-MEL-25 cells assessed as inhibition of cell growth incubated for 24 hrs by resazurin staining based analysis; conditions: SK-MEL-25, 24 h
B16-F10 = assay: Cytotoxicity against mouse B16-F10 cells assessed as inhibition of cell growth incubated for 24 hrs by resazurin staining based analysis; conditions: B16-F10, 24 h
SK-MEL-5 = assay: Cytotoxicity against human SK-MEL-5 cells assessed as inhibition of cell growth incubated for 24 hrs by resazurin staining based analysis; conditions: SK-MEL-5, 24 h

C[C@]12CCc3nc(Nc4ccccn4)sc3C1=CC[C@@H]1[C@@H]2CC[C@]2(C)C(=O)CC[C@@H]12
IC50 (SK-MEL-28): 8.9 µM | IC50 (LOX IMVI): 2.3 µM | IC50 (SK-MEL-25): 11.8 µM | IC50 (B16-F10): 5.9 µM | IC50 (SK-MEL-5): 7.1 µM

Cc1cc(C)cc(Nc2nc3c(s2)C2=CC[C@@H]4[C@H](CC[C@]5(C)C(=O)CC[C@@H]45)[C@@]2(C)CC3)c1
IC50 (SK-MEL-28): 2.5 µM | IC50 (LOX IMVI): 2.5 µM | IC50 (SK-MEL-25): 3.2 µM | IC50 (B16-F10): 8 µM | IC50 (SK-MEL-5): > 20 µM

C#C[C@]1(O)CC[C@H]2[C@@H]3CC=C4c5sc(Nc6ccc(Cl)cn6)nc5CC[C@]4(C)[C@H]3CC[C@@]21C
IC50 (SK-MEL-28): 3.7 µM | IC50 (LOX IMVI): 5.4 µM | IC50 (SK-MEL-25): 8.3 µM | IC50 (B16-F10): 3 µM | IC50 (SK-MEL-5): 4.8 µM

C#C[C@]1(O)CC[C@H]2[C@@H]3CC=C4c5sc(Nc6cccc(Cl)n6)nc5CC[C@]4(C)[C@H]3CC[C@@]21C
IC50 (SK-MEL-28): 2.4 µM | IC50 (LOX IMVI): 5.5 µM | IC50 (SK-MEL-25): 5.7 µM | IC50 (B16-F10): 3.8 µM | IC50 (SK-MEL-5): 2.7 µM

C[C@]12CCc3nc(Nc4cccc(O)c4)sc3C1=CC[C@@H]1[C@@H]2CC[C@]2(C)C(=O)CC[C@@H]12
IC50 (SK-MEL-28): 12.6 µM | IC50 (LOX IMVI): 2.2 µM | IC50 (SK-MEL-25): 4.8 µM | IC50 (B16-F10): 6.7 µM | IC50 (SK-MEL-5): > 20 µM

Cc1ccc(Nc2nc3c(s2)C2=CC[C@@H]4[C@H](CC[C@]5(C)C(=O)CC[C@@H]45)[C@@]2(C)CC3)c(C)c1
IC50 (SK-MEL-28): 1.9 µM | IC50 (LOX IMVI): 3.6 µM | IC50 (SK-MEL-25): 4.4 µM | IC50 (B16-F10): 6.1 µM | IC50 (SK-MEL-5): 6.6 µM

C[C@]12CCc3nc(Nc4ccc(F)cc4F)sc3C1=CC[C@@H]1[C@@H]2CC[C@]2(C)C(=O)CC[C@@H]12
IC50 (SK-MEL-28): 5.3 µM | IC50 (LOX IMVI): 2.8 µM | IC50 (SK-MEL-25): > 20 µM | IC50 (B16-F10): 5.5 µM | IC50 (SK-MEL-5): 11.5 µM

C#C[C@]1(O)CC[C@H]2[C@@H]3CC=C4c5sc(Nc6cc(OC)ccc6OC)nc5CC[C@]4(C)[C@H]3CC[C@@]21C
IC50 (SK-MEL-28): 5 µM | IC50 (LOX IMVI): 2.4 µM | IC50 (SK-MEL-25): 3.4 µM | IC50 (B16-F10): 7.2 µM | IC50 (SK-MEL-5): 3.5 µM

C#C[C@]1(O)CC[C@H]2[C@@H]3CC=C4c5sc(Nc6ccccn6)nc5CC[C@]4(C)[C@H]3CC[C@@]21C
IC50 (SK-MEL-28): 3.4 µM | IC50 (LOX IMVI): 7.5 µM | IC50 (SK-MEL-25): 4 µM | IC50 (B16-F10): 7.6 µM | IC50 (SK-MEL-5): 2.6 µM

C#C[C@]1(O)CC[C@H]2[C@@H]3CC=C4c5sc(Nc6cc(C)cc(C)c6)nc5CC[C@]4(C)[C@H]3CC[C@@]21C
IC50 (SK-MEL-28): 5 µM | IC50 (LOX IMVI): 3.6 µM | IC50 (SK-MEL-25): 3.8 µM | IC50 (B16-F10): 5.8 µM | IC50 (SK-MEL-5): 3.9 µM

C#C[C@]1(O)CC[C@H]2[C@@H]3CC=C4c5sc(-c6ccc(O)cc6)nc5CC[C@]4(C)[C@H]3CC[C@@]21C
IC50 (SK-MEL-28): 2.5 µM | IC50 (LOX IMVI): 3.3 µM | IC50 (SK-MEL-25): 3.7 µM | IC50 (B16-F10): 4.7 µM | IC50 (SK-MEL-5): 3.2 µM

C[C@]12CCc3nc(Nc4ccccc4F)sc3C1=CC[C@@H]1[C@@H]2CC[C@]2(C)C(=O)CC[C@@H]12
IC50 (SK-MEL-28): 6.4 µM | IC50 (LOX IMVI): 6.7 µM | IC50 (SK-MEL-25): > 20 µM | IC50 (B16-F10): 5.4 µM | IC50 (SK-MEL-5): > 20 µM

Cc1ccc(Nc2nc3c(s2)C2=CC[C@@H]4[C@H](CC[C@]5(C)C(=O)CC[C@@H]45)[C@@]2(C)CC3)cc1
IC50 (SK-MEL-28): 4 µM | IC50 (LOX IMVI): 4.2 µM | IC50 (SK-MEL-25): 4.3 µM | IC50 (B16-F10): 4.9 µM | IC50 (SK-MEL-5): 7.3 µM

C#C[C@]1(O)CC[C@H]2[C@@H]3CC=C4c5sc(Nc6ccc(F)cn6)nc5CC[C@]4(C)[C@H]3CC[C@@]21C
IC50 (SK-MEL-28): 3.5 µM | IC50 (LOX IMVI): 5.4 µM | IC50 (SK-MEL-25): 3.2 µM | IC50 (B16-F10): 3.1 µM | IC50 (SK-MEL-5): 2.8 µM

C[C@]12CCc3nc(Nc4ncccn4)sc3C1=CC[C@@H]1[C@@H]2CC[C@]2(C)C(=O)CC[C@@H]12
IC50 (SK-MEL-28): > 20 µM | IC50 (LOX IMVI): > 20 µM | IC50 (SK-MEL-25): 1.8 µM | IC50 (B16-F10): 3 µM | IC50 (SK-MEL-5): 1.3 µM

COc1ccc(OC)c(Nc2nc3c(s2)C2=CC[C@@H]4[C@H](CC[C@]5(C)C(=O)CC[C@@H]45)[C@@]2(C)CC3)c1
IC50 (SK-MEL-28): > 20 µM | IC50 (LOX IMVI): 6.2 µM | IC50 (SK-MEL-25): > 20 µM | IC50 (B16-F10): 6.4 µM | IC50 (SK-MEL-5): > 20 µM

From ChEMBL document CHEMBL6182831, “Thiazole-fused androstenone and ethisterone derivatives: potent β- and γ-actin cytoskeleton inhibitors to treat melanoma tumors” (RSC Med Chem, 2025)
